Here are results for one compound from PMC13278354, “The competitive interplay of 12‐oxophytodienoic acid (OPDA), protein thiols, and glutathione” (The Febs Journal, 2026).

In experiment [1] the target is T1, TRX-f1 (Arabidopsis thaliana, UniProt Q9XFH8).
T1 construct: gene At3g02730; recombinant His-tagged, without transit peptide, E. coli NiCo21(DE3)
T1 sequence (Q9XFH8 58-178): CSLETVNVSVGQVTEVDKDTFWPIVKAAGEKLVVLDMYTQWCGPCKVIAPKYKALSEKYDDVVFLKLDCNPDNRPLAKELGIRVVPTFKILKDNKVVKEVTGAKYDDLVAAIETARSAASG
Kind of experiment: intrinsic tryptophan fluorescence quenching. Format: binding. The following applies: covalent; 15 uM reduced protein, 150 uM OPDA, 3 h, RT, 50 mM KPi pH 7.2.

The target of experiment [2] is T1, TRX-f1. Nature of the experiment: insulin reduction assay (turbidity, A650). The following applies: covalent; 20 uM TRX pre-incubated with 80 uM OPDA, RT; assay pH 7.2, 1 mM DTT. It counts as biochemical.
The target of another experiment is T2, TRX-h3 (Arabidopsis thaliana, UniProt Q42403).
T2 construct: gene TRX3; recombinant His-tagged, E. coli NiCo21(DE3); cytosolic, no transit peptide
T2 sequence (Q42403 1-118): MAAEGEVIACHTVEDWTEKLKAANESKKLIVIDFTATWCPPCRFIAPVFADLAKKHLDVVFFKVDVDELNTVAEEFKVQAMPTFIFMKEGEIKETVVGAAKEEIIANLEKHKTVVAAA
Nature of the experiment: insulin reduction assay (turbidity, A650). Format: biochemical. The following applies: covalent; 20 uM TRX pre-incubated with 80 uM OPDA, RT; assay pH 7.2, 1 mM DTT.

The target of experiment [3] is T3, TRX-m4 (Arabidopsis thaliana, UniProt Q9SEU6).
T3 construct: gene At3g15360; recombinant His-tagged, without transit peptide, E. coli NiCo21(DE3)
T3 sequence (Q9SEU6 83-193): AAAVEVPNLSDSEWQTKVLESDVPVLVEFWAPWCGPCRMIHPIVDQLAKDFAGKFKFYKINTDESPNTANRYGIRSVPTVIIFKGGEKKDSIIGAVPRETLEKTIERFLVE
Kind of experiment: intrinsic tryptophan fluorescence quenching. Format: binding. The following applies: covalent; 15 uM reduced protein, 150 uM OPDA, 3 h, RT, 50 mM KPi pH 7.2.

Experiment [4] addresses T3, TRX-m4. Kind of experiment: insulin reduction assay (turbidity, A650). The following applies: covalent; 20 uM TRX pre-incubated with 80 uM OPDA, RT; assay pH 7.2, 1 mM DTT. Format: biochemical.

SMILES strings stand for the structures.

In the case of `CC/C=C\C[C@@H]1C(=O)C=C[C@@H]1CCCCCCCC(=O)O` [OPDA], the “change of maximal fluorescence intensity” value on TRX-f1 [1] is “–14.5 relative units”; on TRX-m4 [3], “–16.3 relative units”. For the same compound, the residual activity on TRX-f1 [2] amounted to 67%; on TRX-h3, 47%; on TRX-m4 [4], 71%.

The residual activity is the share of the control activity or signal that is left under treatment. Low values mean little activity left, high ones much activity left.
